Measurements from publication PMC12745361, “Dysadherin/YAP axis fuels stem plasticity and immune escape in liver cancer” (Signal Transduction and Targeted Therapy, 2025).

Key:
Assay type in all cases: cell-based, human
[1] = tested on: PLC/PRF/5 cells; assay: Immunoblot of FAK/YAP signalling and pluripotency factors in dysadherin-OE PLC/PRF/5 cells
Method: (§1) Cells were lysed in RIPA buffer for 20 minutes on ice, and protein concentrations were measured using a bicinchoninic acid (BCA) assay kit (Thermo Fisher Scientific). The proteins were denatured with SDS (Sigma‒Aldrich) and by boiling at 95 °C for 5 minutes. Equal amounts (10 µg) were resolved by 10% SDS-PAGE and transferred to PVDF membranes (Millipore, Burlington, MA, USA). The membranes were blocked with 10% bovine serum albumin (Sigma‒Aldrich) and incubated overnight at 4 °C with the indicated primary antibodies. […] After washing, membranes were incubated with HRP-conjugated secondary antibodies, and signals were developed using SuperSignal™ West Dura Substrate (Thermo Fisher Scientific) and visualized using a Digital 8 Imaging System (ProteinSimple, San Jose, CA, USA). The antibodies used for immunoblot analyses are listed in Supplementary Table S3.

[2] = tested on: PLC/PRF/5 cells; assay: Immunosuppressive gene expression in dysadherin-OE PLC/PRF/5 cells
Method: Total RNA was isolated using RNAiso reagent (Takara, Shiga, Japan), and purity was confirmed by 260/280 and 260/230 ratios. cDNA templates were synthesized from 0.5 μg of total RNA using the PrimeScriptTM 1st strand cDNA Synthesis Kit (Takara) with random primers. qPCR was performed using Power SYBR Green PCR Master Mix and Step-One Real-time PCR systems (Applied Biosystems, Foster City, CA, USA). The primers used are listed in Supplementary Table S2.

[3] = tested on: PLC/PRF/5 cells; assay: Sphere formation and Aldefluor assays, dysadherin-OE PLC/PRF/5; details: dysadherin-OE PLC/PRF/5 cells; sphere formation, Aldefluor, CSC gene expression
Method: The ALDH enzymatic activity of the cells was determined by ALDEFLUOR kit (Stem Cell Technologies, Vancouver, BC, Canada). Flow cytometric detection of cells expressing ALDH was performed. Diethylaminobenzaldehyde (DEAB), a specific ALDH inhibitor, was utilized to stain negative control cells.
To examine their self-renewal ability, cells were seeded at various densities in poly-HEMA-coated plates (Sigma‒Aldrich, St. Louis, MO, USA) under non-adherent, sphere–forming condition. After incubation, spheres were counted and measured (n = 3/group). Sphere viability was assessed using the CellTiter-Blue Cell Viability Assay (Sigma-Aldrich) according to the manufacturer’s instructions. Fluorescence was measured at 560 nm excitation and 590 nm emission using the Varioskan LUX multimode reader (Thermo Fisher Scientific, Waltham, MA, USA).

[4] = tested on: Jurkat T cells co-cultured with PLC/PRF/5 cells; assay: Jurkat T-cell co-culture assay (CD69 flow cytometry, IFN-γ ELISA); details: Jurkat cells co-cultured with dysadherin-OE PLC/PRF/5 cells, CD3/CD28 stimulation, 24 hours
Method: The rate of T-cell activation after co-culture with the HCC cells were evaluated by direct co-culture system. The assay was performed in 24-well plates. HCC cells (1x10^4) were seeded in the plates and cultured for 24 hours to allow attachment. The cells were transfected with or without YAP5SA and treated with or without verteporfin. Following 24 hours of treatment, the tumor cells were incubated for an additional 24 hours before introducing Jurkat cells (4x10^5). After 1hour of stabilization, T-cell activation was induced by adding soluble anti-CD3 (2 μg/mL, eBioscience, San Diego, CA, USA), soluble anti-CD28 (1 μg/mL, eBioscience), and anti-mouse Ig (5 μg/mL, Southern Biotech, Birmingham, AL, USA). After 24 hours of co-culture, the supernatant was collected for an IFN-γ ELISA assay, and Jurkat cells were harvested for FACS analysis to assess T-cell activation. The cells were stained with the PE-cy7 conjugated anti-CD69 antibody in FACS buffer for at least 1hour at 4 °C in the dark and analyzed on BD AccuriTM flow cytometer and data were processed using FlowJo software.
The concentration of IFN-γ in cell-free supernatants was measured using a Human IFN-γ ELISA Kit (R&D Systems, Minneapolis, MN, USA), following the manufacturer’s instructions.

[5] = tested on: PLC/PRF/5 cells; assay: PD-L1 immunoblot in dysadherin-OE PLC/PRF/5 cells
Method: as §1

[6] = tested on: PLC/PRF/5 cells; assay: Sorafenib resistance (viability, Annexin V/PI apoptosis) in dysadherin-OE PLC/PRF/5 cells; details: dysadherin-OE PLC/PRF/5 cells with sorafenib
Method: The rate of cell apoptosis was quantified using apoptosis assays performed with an Annexin V-Fluorescein isothiocyanate (FITC) Apoptosis Detection Kit I. (BD Biosciences, San Jose, CA, USA). Cells were washed twice with cold PBS to yield single-cell suspensions at a concentration of 1×10⁶ cells/mL. The suspension was transferred to a tube containing 5 µL of FITC, annexin V, and propidium iodide (PI). After gentle vortexing, the mixture was incubated at room temperature for 15 min in the dark. After incubation, 400 µL of 1 x binding buffer was added to each sample prior to flow cytometry analysis. FACS analysis was performed using a BD AccuriTM flow cytometer (BD Biosciences). FACS data were analyzed using FlowJo software (TreeStar, San Carlos, CA, USA) as described in our previous report.

[7] = tested on: PLC/PRF/5 cells; assay: Clonogenic survival assay, dysadherin-OE PLC/PRF/5; details: dysadherin-OE PLC/PRF/5 cells; 200 cells/well, 14 days, n = 3/group
Method: A clonogenic assay was performed as previously described.[43],[44] Briefly, cells were seeded in 12-well plates (200 cells/well) and cultured for 14 days. Colonies >50 μm in diameter were counted after crystal violet staining (n = 3/group).

[8] = tested on: OCT4 promoter; assay: OCT4 promoter luciferase reporter assay; details: dysadherin-OE PLC/PRF/5 cells, verteporfin 1.5 μmol/L, 24 h, normalized to β-galactosidase
Method: Luciferase activity driven by the OCT4 promoter was measured using a reporter vector (GeneCopoeia, Rockville, MD, USA). For transfection, plasmid DNA, β-galactosidase control, and Lipofectamine (Sigma-Aldrich) were mixed at 1 μg:1 μg:2 μL in 300 μL of OptiMEM (Thermo Fisher Scientific, Waltham, MA, USA) medium per well. Following transfection, cells were treated with verteporfin (1.5 μmol/L) and incubated for 24 h, after which cell lysates were prepared. Luciferase readout was performed using Renilla luciferase assay system (Promega, Madison, WI, USA) and quantified with a SpectraMax L luminometer (Molecular Devices, San Jose, CA, USA). Relative luminescence values were normalized to β-galactosidase activity.

| OCT4 promoter activity increased by dysadherin OE [8] | Molecule | dysadherin-induced increase in FAK phosphorylation [1] | dysadherin-induced increase in YAP activation [1] | dysadherin-induced increase in pluripotency gene expression [1] | dysadherin OE-induced suppression of LATS1/2 phosphorylation ([1]; treatment with a FAK inhibitor) | expression of immunosuppressive genes [2] | CSC features [3] | dysadherin OE-mediated suppression of CD69 upregulation and IFN-γ release [4] | upregulation of PD-L1 expression by dysadherin OE [5] | YAP activity [1] | dysadherin OE-induced p-FAK, YAP activation and pluripotency markers ([1]; immunoblot) | dysadherin OE-induced resistance to sorafenib [6] | clonogenicity [7] |
| --- | --- | --- | --- | --- | --- | --- | --- | --- | --- | --- | --- | --- | --- |
|  | COc1ccc([C@H](CC(=O)O)N2CCN(CCCc3ccc4c(n3)NCCC4)C2=O)cn1 [MK-0429] | specifically suppressed | specifically suppressed | specifically suppressed |  |  |  |  |  |  |  |  |  |
|  | CNC(=O)c1ccccc1Nc1cc(Nc2ccc(N3CCOCC3)cc2OC)ncc1C(F)(F)F [PND-1186] | specifically suppressed | specifically suppressed | specifically suppressed | reversed |  |  |  |  |  |  |  |  |
| suppressed | Verteporfin |  |  |  |  | markedly reduced | suppressed | reversed | reversed | decreased | reversed these effects | reversed | suppressed |
